Experiments:
Hepatocyte [1] = experiment: Drug metabolism in rat hepatocytes assessed as (S)-2-(4-(trifluoromethylsulfonyloxy)phenyl)propanoic acid level at 10 uM after 120 mins; type: ADME, cell-based; conditions: 2 h
Hepatocyte [2] = experiment: Drug metabolism in human hepatocytes assessed as (S)-2-(4-(trifluoromethylsulfonyloxy)phenyl)propanoic acid level at 10 uM after 90 mins; type: ADME, cell-based; conditions: 1.5 h
Hepatocyte [3] = experiment: Drug metabolism in rat hepatocytes assessed as (S)-2-(4-(trifluoromethylsulfonyloxy)phenyl)propanoic acid level at 10 uM after 90 mins; type: ADME, cell-based; conditions: 1.5 h
CYP3A4 = CYP3A4 (Homo sapiens, UniProt P08684); experiment: Inhibition of CYP3A4 using BFC as substrate at 10 uM; type: ADME; conditions: probe BFC
Sequence of CYP3A4 (P08684 whole entry): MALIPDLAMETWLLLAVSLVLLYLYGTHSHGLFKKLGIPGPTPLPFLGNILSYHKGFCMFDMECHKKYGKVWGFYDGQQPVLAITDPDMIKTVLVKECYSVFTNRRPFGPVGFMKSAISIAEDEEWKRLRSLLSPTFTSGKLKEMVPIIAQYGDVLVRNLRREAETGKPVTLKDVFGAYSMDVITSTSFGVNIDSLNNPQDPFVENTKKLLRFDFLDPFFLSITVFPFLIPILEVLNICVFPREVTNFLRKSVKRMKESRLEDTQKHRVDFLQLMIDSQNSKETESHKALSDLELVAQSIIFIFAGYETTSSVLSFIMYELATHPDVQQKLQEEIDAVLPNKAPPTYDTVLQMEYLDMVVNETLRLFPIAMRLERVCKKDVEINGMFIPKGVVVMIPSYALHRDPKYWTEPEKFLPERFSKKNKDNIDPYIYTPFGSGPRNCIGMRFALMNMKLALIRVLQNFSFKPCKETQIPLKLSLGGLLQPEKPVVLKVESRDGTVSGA

Hepatocyte [4] = experiment: Drug metabolism in human hepatocytes assessed as (R)-2-(4-(trifluoromethylsulfonyloxy)phenyl)propanoic acid level at 10 uM after 15 mins; type: ADME, cell-based; conditions: 0.25 h
Hepatocyte [5] = experiment: Drug metabolism in human hepatocytes assessed as (R)-2-(4-(trifluoromethylsulfonyloxy)phenyl)propanoic acid level at 10 uM after 90 mins; type: ADME, cell-based; conditions: 1.5 h
Hepatocyte [6] = experiment: Drug metabolism in rat hepatocytes assessed as (R)-2-(4-(trifluoromethylsulfonyloxy)phenyl)propanoic acid level at 10 uM after 90 mins; type: ADME, cell-based; conditions: 1.5 h
Hepatocyte [7] = experiment: Drug metabolism in human hepatocytes assessed as (S)-2-(4-(trifluoromethylsulfonyloxy)phenyl)propanoic acid level at 10 uM after 15 mins; type: ADME, cell-based; conditions: 0.25 h
[8] = Metabolic stability in rat plasma assessed as compound remaining at 1 uM after 1 hr; type: ADME, cell-free; conditions: read-out: Stability
[9] = Chemical stability of the compound assessed as compound remaining at pH 3.5 after 2 hrs; type: physicochemical; conditions: buffer, read-out: Stability
Hepatocyte [10] = experiment: Drug metabolism in human hepatocytes assessed as (R)-2-(4-(trifluoromethylsulfonyloxy)phenyl)propanoic acid level at 10 uM after 60 mins; type: ADME, cell-based; conditions: 1 h
Hepatocyte [11] = experiment: Drug metabolism in rat hepatocytes assessed as (S)-2-(4-(trifluoromethylsulfonyloxy)phenyl)propanoic acid level at 10 uM after 30 mins; type: ADME, cell-based; conditions: 0.5 h
[12] = Dissociation constant, pKa of the compound; type: physicochemical
Hepatocyte [13] = experiment: Drug metabolism in human hepatocytes assessed as (S)-2-(4-(trifluoromethylsulfonyloxy)phenyl)propanoic acid level at 10 uM after 30 mins; type: ADME, cell-based; conditions: 0.5 h
Hepatocyte [14] = experiment: Drug metabolism in rat hepatocytes assessed as (R)-2-(4-(trifluoromethylsulfonyloxy)phenyl)propanoic acid level at 10 uM after 30 mins; type: ADME, cell-based; conditions: 0.5 h
Hepatocyte [15] = experiment: Drug metabolism in human hepatocytes assessed as (S)-2-(4-(trifluoromethylsulfonyloxy)phenyl)propanoic acid level at 10 uM after 120 mins; type: ADME, cell-based; conditions: 2 h
Hepatocyte [16] = experiment: Drug metabolism in rat hepatocytes assessed as (R)-2-(4-(trifluoromethylsulfonyloxy)phenyl)propanoic acid level at 10 uM after 120 mins; type: ADME, cell-based; conditions: 2 h
Hepatocyte [17] = experiment: Drug metabolism in rat hepatocytes assessed as (R)-2-(4-(trifluoromethylsulfonyloxy)phenyl)propanoic acid level at 10 uM after 60 mins; type: ADME, cell-based; conditions: 1 h
CYP2C19 = CYP2C19 (Homo sapiens, UniProt P33261); experiment: Inhibition of CYP2C19 using DBF as substrate at 10 uM; type: ADME; conditions: probe DBF
Sequence of CYP2C19 (P33261 whole entry): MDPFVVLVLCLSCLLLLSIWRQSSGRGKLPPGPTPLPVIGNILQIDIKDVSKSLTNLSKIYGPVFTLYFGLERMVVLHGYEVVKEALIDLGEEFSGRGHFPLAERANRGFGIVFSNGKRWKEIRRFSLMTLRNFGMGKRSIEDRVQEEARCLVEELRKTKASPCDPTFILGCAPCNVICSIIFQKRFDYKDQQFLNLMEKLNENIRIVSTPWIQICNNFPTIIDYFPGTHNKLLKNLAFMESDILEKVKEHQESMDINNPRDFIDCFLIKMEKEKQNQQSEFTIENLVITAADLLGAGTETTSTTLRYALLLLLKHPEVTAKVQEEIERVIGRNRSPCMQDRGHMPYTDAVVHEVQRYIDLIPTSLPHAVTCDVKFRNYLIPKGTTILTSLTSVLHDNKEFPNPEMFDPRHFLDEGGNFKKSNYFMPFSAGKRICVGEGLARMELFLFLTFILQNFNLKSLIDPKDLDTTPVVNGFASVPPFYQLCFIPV

Hepatocyte [18] = experiment: Drug metabolism in rat hepatocytes assessed as (R)-2-(4-(trifluoromethylsulfonyloxy)phenyl)propanoic acid level at 10 uM after 15 mins; type: ADME, cell-based; conditions: 0.25 h
[19] = Elimination half life in Sprague-Dawley rat at 14 mg/kg, iv; type: ADME, organism-based; design: dose 14 mg/kg, route intravenous; conditions: in vivo, read-out: beta t1/2 (converted)
[20] = Clearance in Sprague-Dawley rat at 14 mg/kg, iv; type: ADME, organism-based; design: dose 14 mg/kg, route intravenous; conditions: in vivo
[21] = target: Voltage-gated inwardly rectifying potassium channel KCNH2 (Homo sapiens, UniProt Q12809); experiment: Displacement of [3H]astemizole from human ERG expressed in HEK293 cells at 10 uM for 60 mins by liquid scintillation counting; type: cell-based; conditions: hek293, 1 h
Sequence of Voltage-gated inwardly rectifying potassium channel KCNH2 (Q12809 whole entry): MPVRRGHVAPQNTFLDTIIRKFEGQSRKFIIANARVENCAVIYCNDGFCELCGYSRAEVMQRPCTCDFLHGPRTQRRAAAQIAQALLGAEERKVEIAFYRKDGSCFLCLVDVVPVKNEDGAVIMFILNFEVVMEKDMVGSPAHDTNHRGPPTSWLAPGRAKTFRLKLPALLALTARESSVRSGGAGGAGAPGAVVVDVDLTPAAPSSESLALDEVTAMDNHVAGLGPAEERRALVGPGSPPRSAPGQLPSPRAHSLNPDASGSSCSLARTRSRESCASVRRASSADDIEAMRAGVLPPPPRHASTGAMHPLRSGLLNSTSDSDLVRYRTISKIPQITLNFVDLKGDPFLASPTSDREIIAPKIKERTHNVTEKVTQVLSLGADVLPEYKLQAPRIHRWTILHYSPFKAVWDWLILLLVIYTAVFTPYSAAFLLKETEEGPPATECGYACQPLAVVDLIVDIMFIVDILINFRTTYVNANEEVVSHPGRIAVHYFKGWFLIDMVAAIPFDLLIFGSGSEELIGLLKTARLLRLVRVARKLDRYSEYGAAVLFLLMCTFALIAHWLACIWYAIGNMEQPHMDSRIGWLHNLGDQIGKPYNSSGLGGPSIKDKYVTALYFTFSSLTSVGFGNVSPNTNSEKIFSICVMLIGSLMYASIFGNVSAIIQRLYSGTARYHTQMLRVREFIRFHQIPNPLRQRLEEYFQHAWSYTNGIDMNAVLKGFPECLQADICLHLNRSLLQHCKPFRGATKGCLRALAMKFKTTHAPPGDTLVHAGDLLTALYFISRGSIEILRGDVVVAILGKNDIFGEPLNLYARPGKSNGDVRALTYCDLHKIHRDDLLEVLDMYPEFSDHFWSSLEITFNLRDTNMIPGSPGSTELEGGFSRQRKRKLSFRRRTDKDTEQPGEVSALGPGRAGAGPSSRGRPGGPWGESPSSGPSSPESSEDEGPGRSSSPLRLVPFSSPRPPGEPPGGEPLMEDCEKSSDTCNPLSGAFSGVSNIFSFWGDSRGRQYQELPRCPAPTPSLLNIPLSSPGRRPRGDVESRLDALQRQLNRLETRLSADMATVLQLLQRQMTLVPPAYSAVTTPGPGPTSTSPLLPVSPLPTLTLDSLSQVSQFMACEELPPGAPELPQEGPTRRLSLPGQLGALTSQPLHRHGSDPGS

Hepatocyte [22] = experiment: Drug metabolism in rat hepatocytes assessed as (S)-2-(4-(trifluoromethylsulfonyloxy)phenyl)propanoic acid level at 10 uM after 60 mins; type: ADME, cell-based; conditions: 1 h
Hepatocyte [23] = experiment: Drug metabolism in rat hepatocytes assessed as (S)-2-(4-(trifluoromethylsulfonyloxy)phenyl)propanoic acid level at 10 uM after 15 mins; type: ADME, cell-based; conditions: 0.25 h
Hepatocyte [24] = experiment: Drug metabolism in human hepatocytes assessed as (S)-2-(4-(trifluoromethylsulfonyloxy)phenyl)propanoic acid level at 10 uM after 60 mins; type: ADME, cell-based; conditions: 1 h
CYP2D6 = CYP2D6 (Homo sapiens, UniProt P10635); experiment: Inhibition of CYP2D6 using AMMC as substrate at 10 uM; type: ADME; conditions: probe AMMC
Sequence of CYP2D6 (P10635 whole entry): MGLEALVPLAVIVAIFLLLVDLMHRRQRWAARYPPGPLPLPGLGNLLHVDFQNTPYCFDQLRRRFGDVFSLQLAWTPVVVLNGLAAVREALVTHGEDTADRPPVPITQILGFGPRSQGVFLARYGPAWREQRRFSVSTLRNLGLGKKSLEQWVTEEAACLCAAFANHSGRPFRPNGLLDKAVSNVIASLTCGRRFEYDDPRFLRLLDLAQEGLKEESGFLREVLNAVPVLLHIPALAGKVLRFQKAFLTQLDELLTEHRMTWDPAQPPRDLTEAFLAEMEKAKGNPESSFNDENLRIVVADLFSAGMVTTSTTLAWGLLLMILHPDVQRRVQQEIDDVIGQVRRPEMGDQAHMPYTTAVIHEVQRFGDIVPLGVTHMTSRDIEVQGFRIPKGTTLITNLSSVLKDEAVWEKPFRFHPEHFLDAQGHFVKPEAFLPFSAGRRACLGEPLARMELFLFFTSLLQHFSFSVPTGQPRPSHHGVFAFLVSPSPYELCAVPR

[25] = target: Interleukin-8 receptors, CXCR1/CXCR2 (Homo sapiens) (UniProt P25025+P25024); experiment: Inhibition of CXCR1/2 in human polymorphonucleate cells assessed as inhibition of CXCL8-induced chemotaxis at 10^-8 M incubated for 15 mins prior to CXCL8-induction measured after 45 mins
CYP1A2 = target: T1, CYP1A2 (Homo sapiens, UniProt P05177); experiment: Inhibition of CYP1A2 using CEC as substrate at 10 uM; type: ADME; conditions: probe CEC
T1 sequence (P05177 whole entry): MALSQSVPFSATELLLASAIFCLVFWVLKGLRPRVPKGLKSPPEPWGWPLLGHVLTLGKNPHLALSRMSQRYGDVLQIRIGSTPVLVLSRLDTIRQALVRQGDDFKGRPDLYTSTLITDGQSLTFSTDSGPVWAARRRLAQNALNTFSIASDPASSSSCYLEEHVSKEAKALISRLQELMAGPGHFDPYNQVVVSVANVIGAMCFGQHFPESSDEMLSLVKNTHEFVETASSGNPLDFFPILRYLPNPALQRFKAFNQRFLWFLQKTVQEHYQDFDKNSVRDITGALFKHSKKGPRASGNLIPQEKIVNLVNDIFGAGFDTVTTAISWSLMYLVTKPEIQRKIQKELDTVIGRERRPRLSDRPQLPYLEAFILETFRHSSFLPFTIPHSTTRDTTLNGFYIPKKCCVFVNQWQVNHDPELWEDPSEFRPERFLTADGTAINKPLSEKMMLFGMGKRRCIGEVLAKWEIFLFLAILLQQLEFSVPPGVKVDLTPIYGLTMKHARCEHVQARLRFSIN

[26] = Metabolic stability in rat liver microsomes assessed as compound remaining at 1 uM preincubated for 10 mins measured after 30 mins; type: ADME, Microsome; conditions: read-out: Stability
Hepatocyte [27] = experiment: Drug metabolism in human hepatocytes assessed as (R)-2-(4-(trifluoromethylsulfonyloxy)phenyl)propanoic acid level at 10 uM after 120 mins; type: ADME, cell-based; conditions: 2 h
CYP2C9 = CYP2C9 (Homo sapiens, UniProt P11712); experiment: Inhibition of CYP2C9 using 7MFC as substrate at 10 uM; type: ADME; conditions: probe 7MFC
Sequence of CYP2C9 (P11712 whole entry): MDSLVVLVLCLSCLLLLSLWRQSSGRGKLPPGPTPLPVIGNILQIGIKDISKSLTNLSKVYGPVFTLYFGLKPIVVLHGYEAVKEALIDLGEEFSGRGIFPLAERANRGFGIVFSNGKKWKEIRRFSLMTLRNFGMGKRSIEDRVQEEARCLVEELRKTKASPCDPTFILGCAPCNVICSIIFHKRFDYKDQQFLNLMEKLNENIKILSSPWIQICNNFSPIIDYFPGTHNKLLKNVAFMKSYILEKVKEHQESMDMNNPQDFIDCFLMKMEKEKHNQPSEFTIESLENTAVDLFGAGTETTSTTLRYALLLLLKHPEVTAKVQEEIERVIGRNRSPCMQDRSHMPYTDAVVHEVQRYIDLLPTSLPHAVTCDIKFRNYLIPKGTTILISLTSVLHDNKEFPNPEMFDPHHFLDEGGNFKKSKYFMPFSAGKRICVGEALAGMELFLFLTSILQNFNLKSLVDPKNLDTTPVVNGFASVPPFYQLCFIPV

Hepatocyte [28] = experiment: Drug metabolism in human hepatocytes assessed as (R)-2-(4-(trifluoromethylsulfonyloxy)phenyl)propanoic acid level at 10 uM after 30 mins; type: ADME, cell-based; conditions: 0.5 h
[29] = target: T2, C-X-C chemokine receptor type 2 (Homo sapiens) (UniProt P25025); experiment: Inhibition of CXCR2 in human polymorphonucleate cells assessed as inhibition of CXCL1-induced chemotaxis at 10^-8 M incubated for 15 mins prior to CXCL1-induction measured after 45 mins
T2 sequence (whole entry): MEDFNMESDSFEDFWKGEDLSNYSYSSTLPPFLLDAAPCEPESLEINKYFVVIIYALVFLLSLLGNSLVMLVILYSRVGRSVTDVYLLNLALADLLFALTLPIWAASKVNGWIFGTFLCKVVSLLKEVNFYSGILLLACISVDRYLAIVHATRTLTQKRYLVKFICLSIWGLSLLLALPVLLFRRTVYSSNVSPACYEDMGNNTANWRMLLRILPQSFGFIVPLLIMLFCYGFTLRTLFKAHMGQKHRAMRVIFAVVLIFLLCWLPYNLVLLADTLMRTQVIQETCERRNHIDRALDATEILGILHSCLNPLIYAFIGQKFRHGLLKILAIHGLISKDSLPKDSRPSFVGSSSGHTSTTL

[30] = Chemical stability of the compound assessed as compound remaining at pH 9 after 2 hrs; type: physicochemical; conditions: buffer, read-out: Stability
[31] = Oral bioavailability in Sprague-Dawley rat at 14 mg/kg; type: ADME, organism-based; conditions: in vivo

C[C@@H](C(=O)NS(C)(=O)=O)c1ccc(OS(=O)(=O)C(F)(F)F)cc1 [LADARIXIN]
Drug metabolism (Hepatocyte [1]): 56 ng/mL
Drug metabolism (Hepatocyte [2]): 3 ng/mL
Drug metabolism (Hepatocyte [3]): 54 ng/mL
inhibition at 10 µM (CYP3A4): < 5%
Drug metabolism (Hepatocyte [4]): < 1 ng/mL
Drug metabolism (Hepatocyte [5]): 20 ng/mL
Drug metabolism (Hepatocyte [6]): 5 ng/mL
Drug metabolism (Hepatocyte [7]): < 1 ng/mL
remaining at 1 h, 1 µM [8]: 100%
remaining at 2 h [9]: > 99%
Drug metabolism (Hepatocyte [10]): 15 ng/mL
Drug metabolism (Hepatocyte [11]): 31 ng/mL
pKa [12]: 4.4
Drug metabolism (Hepatocyte [13]): < 1 ng/mL
Drug metabolism (Hepatocyte [14]): 5 ng/mL
Drug metabolism (Hepatocyte [15]): 6 ng/mL
Drug metabolism (Hepatocyte [16]): 4 ng/mL
Drug metabolism (Hepatocyte [17]): 3 ng/mL
inhibition at 10 µM (CYP2C19): < 5%
Drug metabolism (Hepatocyte [18]): 22 ng/mL
half-life [19]: 19 h
clearance [20]: 0.1 mL/min/kg
inhibition (INH) [21]: Not Active
Drug metabolism (Hepatocyte [22]): 50 ng/mL
Drug metabolism (Hepatocyte [23]): 7 ng/mL
Drug metabolism (Hepatocyte [24]): 2 ng/mL
inhibition at 10 µM (CYP2D6): < 5%
inhibition [25]: 67%
inhibition at 10 µM (CYP1A2): < 5%
remaining at 0.5 h, 1 µM [26]: 100%
Drug metabolism (Hepatocyte [27]): 30 ng/mL
inhibition at 10 µM (CYP2C9): < 5%
Drug metabolism (Hepatocyte [28]): 3 ng/mL
inhibition [29]: 68%
remaining at 2 h [30]: 30%
bioavailability [31]: 100%

— ChEMBL document CHEMBL2021812, “Aryltriflates as a Neglected Moiety in Medicinal Chemistry: A Case Study from a Lead Optimization of CXCL8 Inhibitors” (ACS Med Chem Lett, 2011)
